In US20250059188A1, “ARYLSULPHONAMIDE COMPOUNDS” (Anaxis Pharma Pty Ltd, priority 2021, published 2025):

What was measured:
[1] = biological target: human MLKL (full length) (Homo sapiens (Human), UniProt Q8NB16); assay: KINOMEscan binding assay, human MLKL (full length); conditions: equilibrium dissociation constant
In short: (§1)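 In this assay, compounds displace DNA- or phage-tagged kinase from an immobilized ligand, and eluted kinase is quantified by qPCR.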

[2] = biological target: human RIPK1 (Homo sapiens (Human), UniProt Q13546); assay: KINOMEscan binding assay, human RIPK1; conditions: equilibrium dissociation constant
In short: as §1

[3] = biological target: human RIPK3 (Homo sapiens (Human), UniProt Q9Y572); assay: KINOMEscan binding assay, human RIPK3; conditions: equilibrium dissociation constant
In short: as §1

[4] = system: U937 human histiocytic leukemia cell line; assay: Inhibition of TSQ induced necroptosis in U937 cells (CellTitre-Glo); conditions: Homo sapiens, U-937, TSQ cocktail (TNF, Smac mimetic, Q-VD-OPh), 48 hours, read-out: Inhibition of TSQ-induced necroptosis (IC50 cell-based assay)
In short: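 U937 cells (20000/well) treated with compound (10-point, 1:3 from 36 μM, 0.3% DMSO) plus TSQ cocktail (hTNF-Fc 100 ng/ml, Smac mimetic 500 nM, Q-VD-OPh 10 μM), 48 h at 37 °C. Viability by CellTiter-Glo luminescence; IC50 from 4-parameter logistic fit. Counter screen: same cells without TSQ.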

[5] = system: U937 cells; assay: Counter screen: U937 cell viability without TSQ cocktail (off-target effect); set-up: species or system human; conditions: Homo sapiens, U-937, compound without TSQ cocktail, read-out: Off-target effect (IC50 cell-based assay)
In short: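 U937 cells (20,000/well) exposed to compound (10-point 1:3 titration from 36 μM, 0.3% DMSO) without TSQ cocktail for 48 h at 37 °C/5% CO2. Viability read as ATP by CellTiter-Glo luminescence; IC50 from 4-parameter logistic fit.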

Chain of human RIPK3 (Q9Y572 whole entry): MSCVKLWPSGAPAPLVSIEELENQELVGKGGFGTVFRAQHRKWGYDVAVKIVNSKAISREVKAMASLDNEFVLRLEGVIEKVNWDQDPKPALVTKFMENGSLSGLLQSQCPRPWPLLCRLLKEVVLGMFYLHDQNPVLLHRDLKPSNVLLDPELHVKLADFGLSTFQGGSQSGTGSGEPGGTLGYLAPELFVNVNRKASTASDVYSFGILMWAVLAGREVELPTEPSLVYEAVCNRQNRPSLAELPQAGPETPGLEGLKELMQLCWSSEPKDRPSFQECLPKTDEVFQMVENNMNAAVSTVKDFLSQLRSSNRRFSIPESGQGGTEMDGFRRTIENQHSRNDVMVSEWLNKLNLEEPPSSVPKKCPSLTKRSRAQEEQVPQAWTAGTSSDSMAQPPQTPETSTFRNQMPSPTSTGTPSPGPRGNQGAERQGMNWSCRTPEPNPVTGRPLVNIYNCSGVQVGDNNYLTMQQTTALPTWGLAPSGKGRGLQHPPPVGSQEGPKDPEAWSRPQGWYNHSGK
Chain of human RIPK1 (Q13546 whole entry): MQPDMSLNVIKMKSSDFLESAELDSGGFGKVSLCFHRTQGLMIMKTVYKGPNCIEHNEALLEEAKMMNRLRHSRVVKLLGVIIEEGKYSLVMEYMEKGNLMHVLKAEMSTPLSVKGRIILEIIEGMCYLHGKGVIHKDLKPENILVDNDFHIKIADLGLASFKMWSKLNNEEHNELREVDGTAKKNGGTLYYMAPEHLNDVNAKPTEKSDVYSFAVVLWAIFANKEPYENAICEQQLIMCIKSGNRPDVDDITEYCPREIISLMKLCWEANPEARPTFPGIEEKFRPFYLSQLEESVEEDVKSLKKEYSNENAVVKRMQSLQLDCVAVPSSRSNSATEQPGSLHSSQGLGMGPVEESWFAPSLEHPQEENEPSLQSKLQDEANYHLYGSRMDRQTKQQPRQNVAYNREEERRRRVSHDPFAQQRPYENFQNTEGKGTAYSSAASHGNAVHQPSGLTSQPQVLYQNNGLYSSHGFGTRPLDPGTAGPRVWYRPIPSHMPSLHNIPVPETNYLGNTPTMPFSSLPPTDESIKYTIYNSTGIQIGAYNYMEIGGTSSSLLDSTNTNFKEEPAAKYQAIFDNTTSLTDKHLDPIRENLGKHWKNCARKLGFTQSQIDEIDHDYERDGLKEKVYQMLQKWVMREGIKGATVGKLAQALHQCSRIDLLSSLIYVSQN
Chain of human MLKL (full length) (Q8NB16 whole entry): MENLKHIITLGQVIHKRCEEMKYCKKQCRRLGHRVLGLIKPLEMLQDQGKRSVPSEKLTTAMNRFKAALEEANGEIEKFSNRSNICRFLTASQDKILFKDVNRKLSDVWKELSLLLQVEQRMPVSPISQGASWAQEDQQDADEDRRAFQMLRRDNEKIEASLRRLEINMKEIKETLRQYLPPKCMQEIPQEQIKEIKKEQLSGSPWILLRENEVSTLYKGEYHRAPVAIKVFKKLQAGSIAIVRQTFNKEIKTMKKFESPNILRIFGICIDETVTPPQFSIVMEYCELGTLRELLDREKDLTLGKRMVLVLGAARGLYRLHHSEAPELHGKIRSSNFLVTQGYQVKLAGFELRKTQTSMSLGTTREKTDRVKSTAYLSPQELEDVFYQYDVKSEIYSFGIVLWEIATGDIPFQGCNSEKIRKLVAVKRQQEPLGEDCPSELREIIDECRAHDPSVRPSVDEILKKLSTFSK

| Kd [1] [µM] | Kd [2] [µM] | Kd [3] [µM] | Compound | IC50 [4] [µM] | IC50 [5] [µM] |
| --- | --- | --- | --- | --- | --- |
| 0.001 to 0.1 | > 10 | > 10 | C[C@H](Oc1cc(-c2nn(C)c3c(-c4ccc(C(F)(F)F)nc4)cnc(N)c23)ccc1NS(=O)(=O)C(F)F)c1ccc(F)cc1 [Compound 117, (S)-N-(4-(4-amino-1-methyl-7-(6-(trifluoromethyl)pyridin-3-yl)-1H-pyrazolo[4,3-c]pyridin-3-yl)-2-(1-(4-fluorophenyl)ethoxy)phenyl)-1,1-difluoromethanesulfonamide] | 0.01 to 1 | > 10 |
| 0.001 to 0.1 | > 10 | > 10 | C[C@H](Oc1cc(-c2nn(C)c3c(-c4cnn(C5CCOCC5)c4)cnc(N)c23)ccc1NS(C)(=O)=O)c1ccc(F)cc1 [Compound 119, (S)-N-(4-(4-amino-1-methyl-7-(1-(tetrahydro-2H-pyran-4-yl)-1H-pyrazol-4-yl)-1H-pyrazolo[4,3-c]pyridin-3-yl)-2-(1-(4-fluorophenyl)ethoxy)phenyl)methanesulfonamide] | 0.01 to 1 | > 10 |
| < 0.001 | > 10 | > 10 | C[C@H](Oc1cc(-c2nn(C)c3c(-c4cnn(C(F)F)c4)cnc(N)c23)ccc1NS(=O)(=O)C(F)F)c1ccc(F)cc1 [Compound 123, (S)-N-(4-(4-amino-7-(1-(difluoromethyl)-1H-pyrazol-4-yl)-1-methyl-1H-pyrazolo[4,3-c]pyridin-3-yl)-2-(1-(4-fluorophenyl)ethoxy)phenyl)-1,1-difluoromethanesulfonamide] | < 0.01 | > 10 |
| 0.001 to 0.1 | > 10 | > 10 | C[C@H](Oc1cc(-c2nn(C)c3c(-c4ccn(C)c4)cnc(N)c23)ccc1NS(=O)(=O)C(F)F)c1ccc(F)cc1 [Compound 126, (S)-N-(4-(4-amino-1-methyl-7-(1-methyl-1H-pyrrol-3-yl)-1H-pyrazolo[4,3-c]pyridin-3-yl)-2-(1-(4-fluorophenyl)ethoxy)phenyl)-1,1-difluoromethanesulfonamide] | 0.01 to 1 | > 10 |
| 0.001 to 0.1 | > 10 | > 10 | C[C@H](Oc1cc(-c2nn(C)c3c(C#CC4CCN(CC(F)(F)F)CC4)cnc(N)c23)ccc1NS(=O)(=O)C(F)F)c1ccc(F)cc1 [Compound 128, (S)-N-(4-(4-amino-1-methyl-7-((1-(2,2,2-trifluoroethyl)piperidin-4-yl)ethynyl)-1H-pyrazolo[4,3-c]pyridin-3-yl)-2-(1-(4-fluorophenyl)ethoxy)phenyl)-1,1-difluoromethanesulfonamide] | 0.01 to 1 | > 10 |
| < 0.001 | > 10 | > 10 | C[C@H](Oc1cc(-c2nn(C)c3c(C#N)cnc(N)c23)ccc1NS(=O)(=O)C(F)F)c1ccc(F)cc1 [Compound 133, N-(4-{4-amino-7-cyano-1-methyl-1H-pyrazolo[4,3-c]pyridin-3-yl}-2-[(1S)-1-(4-fluorophenyl)ethoxy]phenyl)-1,1-difluoromethanesulfonamide] | 0.01 to 1 | > 10 |
| 0.001 to 0.1 | > 10 | > 10 | C[C@H](Oc1cc(-c2nn(C)c3c(-c4cnn(C(F)(F)F)c4)cnc(N)c23)ccc1NS(=O)(=O)C(F)F)c1ccc(F)cc1 [Compound 134, (S)-N-(4-(4-amino-1-methyl-7-(1-(trifluoromethyl)-1H-pyrazol-4-yl)-1H-pyrazolo[4,3-c]pyridin-3-yl)-2-(1-(4-fluorophenyl)ethoxy)phenyl)-1,1-difluoromethanesulfonamide] | 0.01 to 1 | > 10 |
| < 0.001 | > 10 | > 10 | Cn1nc(-c2ccc(NS(=O)(=O)C(F)F)cc2OCc2cccc(F)c2)c2c(N)ncc(-c3cnn(C4CCOCC4)c3)c21 [Compound 135, N-(4-(4-amino-1-methyl-7-(1-(tetrahydro-2H-pyran-4-yl)-1H-pyrazol-4-yl)-1H-pyrazolo[4,3-c]pyridin-3-yl)-3-((3-fluorobenzyl)oxy)phenyl)-1,1-difluoromethanesulfonamide] | 0.01 to 1 | > 10 |
| 0.001 to 0.1 | > 10 | > 10 | CNc1ncc(-n2cc(-c3cnc(N)c4c(-c5ccc(NS(=O)(=O)C(F)F)c(O[C@@H](C)c6ccc(F)cc6)c5)nn(C)c34)cn2)cn1 [Compound 138, (S)-N-(4-(4-amino-1-methyl-7-(1-(2-(methylamino)pyrimidin-5-yl)-1H-pyrazol-4-yl)-1H-pyrazolo[4,3-c]pyridin-3-yl)-2-(1-(4-fluorophenyl)ethoxy)phenyl)-1,1-difluoromethanesulfonamide] | 0.01 to 1 | > 10 |
| 0.001 to 0.1 | > 10 | > 10 | Cn1nc(-c2ccc(NS(=O)(=O)C(F)F)c(OC3(c4ccc(F)cc4)CC3)c2)c2c(N)ncc(-c3cnn(C4CCOCC4)c3)c21 [Compound 140, N-(4-(4-amino-1-methyl-7-(1-(tetrahydro-2H-pyran-4-yl)-1H-pyrazol-4-yl)-1H-pyrazolo[4,3-c]pyridin-3-yl)-2-(1-(4-fluorophenyl)cyclopropoxy)phenyl)-1,1-difluoromethanesulfonamide] | 0.01 to 1 | > 10 |
| 0.001 to 0.1 | > 10 | > 10 | C[C@H](Oc1cc(-c2nn(C)c3c(N4CCOCC4)cnc(N)c23)ccc1NS(=O)(=O)C(F)F)c1ccc(F)cc1 [Compound 141, N-{4-[4-amino-1-methyl-7-(morpholin-4-yl)-1H-pyrazolo[4,3-c]pyridin-3-yl]-2-[(1S)-1-(4-fluorophenyl)ethoxy]phenyl}-1,1-difluoromethanesulfonamide] | 0.01 to 1 | > 10 |
| 0.001 to 0.1 | > 10 | > 10 | Cc1nn(C2CCN(C)C(C)(C)C2)cc1-c1cnc(N)c2c(-c3ccc(NS(=O)(=O)C(F)F)c(O[C@@H](C)c4ccc(F)cc4)c3)nn(C)c12 (stereo partly drawn) [Compound 156, N-(4-(4-amino-1-methyl-7-(3-methyl-1-(1,2,2-trimethylpiperidin-4-yl)-1H-pyrazol-4-yl)-1H-pyrazolo[4,3-c]pyridin-3-yl)-2-((S)-1-(4-fluorophenyl)ethoxy)phenyl)-1,1-difluoromethanesulfonamide] | 0.01 to 1 | > 10 |
| < 0.001 | > 10 | > 10 | C[C@H](Oc1cc(-c2nn(C)c3c(-c4ccc5[nH]c(=O)n(C)c5c4)cnc(N)c23)ccc1NS(=O)(=O)C(F)F)c1ccc(F)cc1 [Compound 160, (S)-N-(4-(4-amino-1-methyl-7-(3-methyl-2-oxo-2,3-dihydro-1H-benzo[d]imidazol-5-yl)-1H-pyrazolo[4,3-c]pyridin-3-yl)-2-(1-(4-fluorophenyl)ethoxy)phenyl)-1,1-difluoromethanesulfonamide] | 0.01 to 1 | > 10 |
| < 0.001 | > 10 | > 10 | C[C@H](Oc1cc(-c2nn(C)c3c(-c4ccc5c(c4)n(C)c(=O)n5C)cnc(N)c23)ccc1NS(=O)(=O)C(F)F)c1ccc(F)cc1 [Compound 161, (S)-N-(4-(4-amino-7-(1,3-dimethyl-2-oxo-2,3-dihydro-1H-benzo[d]imidazol-5-yl)-1-methyl-1H-pyrazolo[4,3-c]pyridin-3-yl)-2-(1-(4-fluorophenyl)ethoxy)phenyl)-1,1-difluoromethanesulfonamide] | 1 to 10 | > 10 |
